PubChem BioAssay (NCI)
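Protocol summary: plate cells (96-well), add compound at 5 concentrations, incubate 48 h, interpolate endpoints linearly. GI50 is the concentration that inhibits growth by half. TGI is the concentration that stops growth completely.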

Experiments:
Assay in all cases: NCI anticancer screen, dose series, 48 h
HT29 colon = tested on: HT29 colon
786-0 renal = tested on: 786-0 renal
KM12 colon = tested on: KM12 colon
SK-OV-3 ovarian = tested on: SK-OV-3 ovarian
IGROV1 ovarian = tested on: IGROV1 ovarian
BT-549 breast = tested on: BT-549 breast
MOLT-4 leukemia = tested on: MOLT-4 leukemia
SNB-19 CNS = tested on: SNB-19 CNS
HOP-92 NSCLC = tested on: HOP-92 NSCLC
A549 NSCLC = tested on: A549 NSCLC
ACHN renal = tested on: ACHN renal
HCT-116 colon = tested on: HCT-116 colon
OVCAR-4 ovarian = tested on: OVCAR-4 ovarian
SF-268 CNS = tested on: SF-268 CNS
MCF7 breast = tested on: MCF7 breast
SK-MEL-5 melanoma = tested on: SK-MEL-5 melanoma
NCI-H226 lung = tested on: NCI-H226 lung
UO-31 renal = tested on: UO-31 renal
HOP-62 NSCLC = tested on: HOP-62 NSCLC
DU-145 prostate = tested on: DU-145 prostate
OVCAR-3 ovarian = tested on: OVCAR-3 ovarian
EKVX NSCLC = tested on: EKVX NSCLC
SF-295 CNS = tested on: SF-295 CNS
UACC-62 melanoma = tested on: UACC-62 melanoma
MALME-3M melanoma = tested on: MALME-3M melanoma
SK-MEL-28 melanoma = tested on: SK-MEL-28 melanoma
SNB-75 CNS = tested on: SNB-75 CNS
TK-10 renal = tested on: TK-10 renal
MDA-MB-231 breast = tested on: MDA-MB-231 breast
K-562 leukemia = tested on: K-562 leukemia
A498 renal = tested on: A498 renal
T-47D breast = tested on: T-47D breast
UACC-257 melanoma = tested on: UACC-257 melanoma
NCI-H460 lung = tested on: NCI-H460 lung
HL-60(TB) leukemia = tested on: HL-60(TB) leukemia
NCI/ADR-RES ovarian = tested on: NCI/ADR-RES ovarian
HS 578T breast = tested on: HS 578T breast
CAKI-1 renal = tested on: CAKI-1 renal
MDA-MB-435 = tested on: MDA-MB-435
M14 melanoma = tested on: M14 melanoma
SW-620 colon = tested on: SW-620 colon
SN12C renal = tested on: SN12C renal
HCT-15 colon = tested on: HCT-15 colon
COLO 205 colon = tested on: COLO 205 colon
SK-MEL-2 melanoma = tested on: SK-MEL-2 melanoma
SF-539 CNS = tested on: SF-539 CNS
RPMI-8226 leukemia = tested on: RPMI-8226 leukemia
CCRF-CEM leukemia = tested on: CCRF-CEM leukemia
LOX IMVI melanoma = tested on: LOX IMVI melanoma
RXF 393 renal = tested on: RXF 393 renal
NCI-H23 lung = tested on: NCI-H23 lung
OVCAR-8 ovarian = tested on: OVCAR-8 ovarian
PC-3 prostate = tested on: PC-3 prostate
OVCAR-5 ovarian = tested on: OVCAR-5 ovarian
NCI-H522 lung = tested on: NCI-H522 lung
SR leukemia = tested on: SR leukemia
U251 CNS = tested on: U251 CNS
HCC-2998 colon = tested on: HCC-2998 colon

`CC(O)c1cc(C(=O)N[C@@H](C)Cn2ccc(-c3ccc(C#N)c(Cl)c3)n2)n[nH]1` (stereo partly specified) showed a GI50 (HT29 colon) of over 100 µM, a TGI (HT29 colon) of over 100 µM and a GI50 (786-0 renal) of over 100 µM. For the same molecule, the TGI (786-0 renal) was over 100 µM, the GI50 (KM12 colon) was 76.7 µM and the TGI (KM12 colon) was over 100 µM. The GI50 (SK-OV-3 ovarian) was over 100 µM, the TGI (SK-OV-3 ovarian) was over 100 µM and the GI50 (IGROV1 ovarian) was 78.8 µM. For the same molecule, the TGI (IGROV1 ovarian) was over 100 µM, the GI50 (BT-549 breast) was 19.7 µM and the TGI (BT-549 breast) was 77.7 µM. For the same molecule, the GI50 (MOLT-4 leukemia) was 0.37 µM, the TGI (MOLT-4 leukemia) was 5.15 µM and the GI50 (SNB-19 CNS) was over 100 µM. It also gave a TGI (SNB-19 CNS) of over 100 µM, a GI50 (HOP-92 NSCLC) of 26.5 µM and a TGI (HOP-92 NSCLC) of over 100 µM. The GI50 (A549 NSCLC) was 85.4 µM, the TGI (A549 NSCLC) was over 100 µM and the GI50 (ACHN renal) was 82.5 µM. It also gave a TGI (ACHN renal) of over 100 µM, a GI50 (HCT-116 colon) of 45.7 µM and a TGI (HCT-116 colon) of over 100 µM. For the same molecule, the GI50 (OVCAR-4 ovarian) was 16.3 µM, the TGI (OVCAR-4 ovarian) was over 100 µM and the GI50 (SF-268 CNS) was over 100 µM. It also gave a TGI (SF-268 CNS) of over 100 µM, a GI50 (MCF7 breast) of 30.7 µM and a TGI (MCF7 breast) of over 100 µM. It also gave a GI50 (SK-MEL-5 melanoma) of 15.2 µM, a TGI (SK-MEL-5 melanoma) of 48.3 µM and a GI50 (NCI-H226 lung) of 58.5 µM. It also gave a TGI (NCI-H226 lung) of over 100 µM, a GI50 (UO-31 renal) of 35.1 µM and a TGI (UO-31 renal) of over 100 µM. For the same molecule, the GI50 (HOP-62 NSCLC) was over 100 µM, the TGI (HOP-62 NSCLC) was over 100 µM and the GI50 (DU-145 prostate) was over 100 µM. The TGI (DU-145 prostate) was over 100 µM, the GI50 (OVCAR-3 ovarian) was 47.3 µM and the TGI (OVCAR-3 ovarian) was over 100 µM. For the same molecule, the GI50 (EKVX NSCLC) was 36.8 µM, the TGI (EKVX NSCLC) was over 100 µM and the GI50 (SF-295 CNS) was 23.9 µM. For the same molecule, the TGI (SF-295 CNS) was over 100 µM, the GI50 (UACC-62 melanoma) was 34.3 µM and the TGI (UACC-62 melanoma) was over 100 µM. It also gave a GI50 (MALME-3M melanoma) of 42.5 µM, a TGI (MALME-3M melanoma) of over 100 µM and a GI50 (SK-MEL-28 melanoma) of 72.8 µM. It also gave a TGI (SK-MEL-28 melanoma) of over 100 µM, a GI50 (SNB-75 CNS) of 52.4 µM and a TGI (SNB-75 CNS) of over 100 µM. The GI50 (TK-10 renal) was over 100 µM, the TGI (TK-10 renal) was over 100 µM and the GI50 (MDA-MB-231 breast) was 53.3 µM. It also gave a TGI (MDA-MB-231 breast) of over 100 µM, a GI50 (K-562 leukemia) of 0.73 µM and a TGI (K-562 leukemia) of over 100 µM. It also gave a GI50 (A498 renal) of 3.51 µM, a TGI (A498 renal) of 55.9 µM and a GI50 (T-47D breast) of 13.2 µM. The TGI (T-47D breast) was 87.8 µM, the GI50 (UACC-257 melanoma) was 27.5 µM and the TGI (UACC-257 melanoma) was over 100 µM. The GI50 (NCI-H460 lung) was over 100 µM, the TGI (NCI-H460 lung) was over 100 µM and the GI50 (HL-60(TB) leukemia) was 0.0272 µM. The TGI (HL-60(TB) leukemia) was 0.24 µM, the GI50 (NCI/ADR-RES ovarian) was over 100 µM and the TGI (NCI/ADR-RES ovarian) was over 100 µM. The GI50 (HS 578T breast) was 62.7 µM, the TGI (HS 578T breast) was over 100 µM and the GI50 (CAKI-1 renal) was 44.9 µM. It also gave a TGI (CAKI-1 renal) of over 100 µM, a GI50 (MDA-MB-435) of 32.4 µM and a TGI (MDA-MB-435) of over 100 µM. For the same molecule, the GI50 (M14 melanoma) was 32.8 µM, the TGI (M14 melanoma) was over 100 µM and the GI50 (SW-620 colon) was over 100 µM. It also gave a TGI (SW-620 colon) of over 100 µM, a GI50 (SN12C renal) of 48.7 µM and a TGI (SN12C renal) of over 100 µM. The GI50 (HCT-15 colon) was over 100 µM, the TGI (HCT-15 colon) was over 100 µM and the GI50 (COLO 205 colon) was 54 µM. It also gave a TGI (COLO 205 colon) of over 100 µM, a GI50 (SK-MEL-2 melanoma) of 46.6 µM and a TGI (SK-MEL-2 melanoma) of over 100 µM. It also gave a GI50 (SF-539 CNS) of over 100 µM, a TGI (SF-539 CNS) of over 100 µM and a GI50 (RPMI-8226 leukemia) of 15.3 µM. The TGI (RPMI-8226 leukemia) was 80.6 µM, the GI50 (CCRF-CEM leukemia) was 16.8 µM and the TGI (CCRF-CEM leukemia) was 39.9 µM. It also gave a GI50 (LOX IMVI melanoma) of 87.2 µM, a TGI (LOX IMVI melanoma) of over 100 µM and a GI50 (RXF 393 renal) of over 100 µM. It also gave a TGI (RXF 393 renal) of over 100 µM, a GI50 (NCI-H23 lung) of 76 µM and a TGI (NCI-H23 lung) of over 100 µM. For the same molecule, the GI50 (OVCAR-8 ovarian) was 28.7 µM, the TGI (OVCAR-8 ovarian) was over 100 µM and the GI50 (PC-3 prostate) was 22.1 µM. For the same molecule, the TGI (PC-3 prostate) was over 100 µM, the GI50 (OVCAR-5 ovarian) was over 100 µM and the TGI (OVCAR-5 ovarian) was over 100 µM. For the same molecule, the GI50 (NCI-H522 lung) was 39.4 µM, the TGI (NCI-H522 lung) was over 100 µM and the GI50 (SR leukemia) was 8.06 µM. The TGI (SR leukemia) was over 100 µM, the GI50 (U251 CNS) was over 100 µM and the TGI (U251 CNS) was over 100 µM. It also gave a GI50 (HCC-2998 colon) of over 100 µM and a TGI (HCC-2998 colon) of over 100 µM.
